Experimental data: patent US20250114337A1, “METHODS FOR VASCULAR REGENERATION AND WOUND TREATMENT” (THE METHODIST HOSPITAL, priority 2022, published 2025)

Tests used:
ischemic hindlimb model = ischemic hindlimb model in fibroblast lineage tracing Fsp1-Cre: R26R-EYFP mice; assay type: in vivo, mouse; conditions: 7 days post-surgery
Protocol: Using established transdifferentiation protocol and metabolomics profiling to assess the global metabolic changes during transdifferentiation. […] To determine the role of this metabolite in transdifferentiation, the effect of Thiamet G was assessed, an inhibitor of OGA, which enhances O-GlcNAcylation. Thiamet G increased transdifferentiation efficiency in vitro. In a fibroblast lineage tracing mice, Fsp1-Cre: R26R-EYFP mice, Thiamet G increased tissue O-glycnacylation, increased capillary density and limb perfusion, and increased the number of fibroblasts transdifferentiating into endothelial cells (i.e. FSP+CD31+ cell) in an ischemic hindlimb model.
Angiogenic transdifferentiation in limb ischemia. A fibroblast lineage tracing mouse model (Fsp1-Cre: R26R-EYFP) was used to detect transdifferentiation in vivo in a murine model of limb ischemia (Meng, S., et al., Circulation, 2020. 142 (17): p. 1647-1662). […] This population is abolished when the mice are treated with anti-inflammatory drugs, such as dexamethasone. Intriguingly, the disappearance of these cells is associated with a reduction in perfusion recovery and worsening clinical scores. Similar results are achieved when inflammatory signaling is impaired, as in Fsp1-Cre: Rela flox/flox mice. In these animals, NFκB signaling is blocked in the Fsp1+fibroblasts, associated with a dramatic reduction in transdifferentiated fibroblasts (i.e. YFP+CD144+ cells), and impaired perfusion (Meng. S., et al., Circulation, 2020. 142 (17): p. 1647-1662). […] Cluster 8 produced angiogenic cytokines, whereas Cluster 5 expressed genes associated with EC identity (i.e CD144). But only Cluster 5 could generate EC-like networks in Matrigel whereas other fibroblasts, including Cluster 8 fibroblasts, formed nodal structures typical of fibroblasts in Matrigel. The data support the idea that transdifferentiation may occur in vivo with tissue ischemia, and is dependent on inflammatory signaling. This model can be used to study the contribution of O-GlcNAcylation in transdifferentiation and limb ischemia recovery in vivo. A similar lineage tracing approach can be used with tamoxifen-inducible Col1A2-Cre/ERT: R26R-tdTomato mouse strain to study the contribution of O-GlcNAcylation in transdifferentiation and limb ischemia recovery in vivo.
To determine if O-GlcNAcylation enhances revascularization through transdifferentiation, fibroblasts lineage tracing Fsp1-Cre: R26R-EYFP mice strain were utilized where it was previously observed the in situ transdifferentiation phenomenon (FIG. 20A). In this model, all the fibroblasts expressing Fsp1 (fibroblast-specific protein1) are marked with YFP. With this model, a significant increase in the FSP-expressing cell progeny in the ischemic limb was identified compared with the sham-operated limb 3 days after the femoral artery ligation was perform (FIG. 20A) and compare the YFP+ cells over the different time points (FIG. 20A). The percentage of the YFP+CD31+CD11b-cell population which is considered the transdifferentiation population was analyzed further. […] To determine the role of the O-GlcNAcylation on the transdifferentiation, the Fsp1-Cre: R26R-EYFP mice that are undergoing vascular recovery with OSMI were treated, and the transdifferentiation population in the limb muscle tissue 7 days post-surgery was analyzed.

H3.3 deposition = assay: H3.3-SNAP tagging, quench-chase-pulse TMR-Star labeling; assay type: cell-based; conditions: Poly I:C + OSMI
Excerpt: To identify the role of O-GlcNAcylation of histone variant h3.3 chaperone protein, HIRA, on transdifferentiation. The effects of O-GlcNAcylation on proteins that may be involved in the epigenetic regulation of transdifferentiation can be assessed. Nucleosome turnover is known to be tightly interrelated with DNA accessibility, and histone variant h3.3 is a hallmark of regulatory regions in the mammalian genome and is required to establish open chromatins. HIRA is the chaperone for h3.3, it forms a complex with other subunits, including ASF1. UBN, and CABIN, and is responsible for h3.3 deposition on the chromatin. OGT interacts with and O-GlcNAcylates HIRA, both of which are critical for the formation of the HIRA-h3.3 complex and h3.3 deposition and its dependent gene activation. […] The role of HIRA in transdifferentiation with fibroblasts that have HIRA knocked down or overexpressed can be determined. […] Thereafter, the de novo deposited SNAP-h3.3 will be pulse-labeled with the TMR-Star, which is a readily detectable and quantifiable red-fluorescent substrate. […]
To test whether innate immune activation enhances the H3.3 deposition in the chromatin, the H3.3-SNAP tagging system was generated where the newly synthesized H3.3 will be detected by fluorescent TMR-Star labeling with quench-chase-pulse strategy.

CCOC(=O)CN(Cc1cccs1)C(=O)[C@H](NS(=O)(=O)c1cc2ccc(=O)[nH]c2cc1Cl)c1ccccc1OC [OSMI]
transdifferentiation population (YFP+CD31+CD11b-) in limb muscle tissue (ischemic hindlimb model): significantly reduced | Poly I:C-enhanced H3.3 deposition (H3.3 deposition): impaired
